Measured values taken from patent US9943528B2 (MAPREG, priority 2016, dated 2018).
“Also recorded” adds a separate entry of the source.

What was measured:
[1] = system: Wistar Kyoto rat strain (WKY); conditions: WKY rats, literature; cited from earlier work
Wistar Kyoto (WKY) rats = experiment: Open-field arena (OFA) in WKY rats, acute treatment; type: in vivo, rat; conditions: fluoxetine 10 mg/kg i.p., ketamine 30 mg/kg i.p.; for number of entries in the central square of OFA, change vs WKY receiving only vehicle: FIG. 5B; for time spent in the center of open-field vs WKY receiving vehicle: FIG. 5C
Protocol: After a 6-day period of acclimatization, all experimental groups received daily successive subcutaneous (250 μl per rat) and intraperitoneal (1 ml/kg) injections. WI rats received injection of vehicle (sesame oil+saline) while WKY rats were randomly assigned to […] experimental groups, as follow: KWY rats receiving only vehicle (sesame oil+saline) and WKY rats treated with MAP4343 (10 mg/kg, s.c.; rats received in parallel i.p. injections of saline), fluoxetine (10 mg/kg i.p., rats received in parallel s.c. injections of sesame oil) or ketamine (30 mg/kg, i.p.; rats received in parallel s.c. injections of sesame oil) (see FIG. 3).
After, a 6-day period of acclimatization, the acute phase of treatment started for 4 days during behavioral tests were performed (FIG. 3). All animals were injected 1 h 30 before the starting of behavioral test.
The animals were individually placed in the open field arena (OFA) (70×100×70 cm), with a central square (35×50 cm), located in a 50 lux illuminated room and videotaped during 3 min using a computerized system (VideoTrack V2.5, ViewPoint, Lyon, France).
OFA allows firstly the evaluation of total locomotor activity (LMA) thereby measuring the total distance travelled in the arena (in cm). Secondly, measurements of the activity in the center of the arena like (i) the number of entries in the center of arena and (ii) the total time spent in the center of arena (in sec) provide cues of anxiety-like behavior (Prut and Belzung, 2003). All these behavioral parameters were instantaneously measured automatically with the VideoTrack V2.5 software from the videos.

WKY rats = conditions: cited from earlier work; for resistance of WKY rats to the drug: fluoxetine acute or chronic, citalopram acute, paroxetine sub-chronic (12 days)
[2] = system: purified tubulin and MAP2; experiment: Activity: increase in optical density at 345 nm of purified tubulin and MAP2 with GTP; type: biochemical; conditions: 37° C.
Protocol: Activity is measured by the increase in optical density at 345 nm of a mixture of purified tubulin and MAP2, incubated at 37° C. in the presence of GTP.

MAP2 = experiment: Binding (affinity) by displacement of PREG-3H
PC12 cells = experiment: Stimulation of neuritic sprouting on PC12 cells differentiated with NGF; type: cell-based; conditions: NGF 10 ng/ml, steroid 30 μM, 3 days, relative to PREG
Protocol: Stimulation of neuritic sprouting is conducted on PC12 cells differentiated in the presence of NGF (10 ng/ml) and the steroid being tested (30 μM) for 3 days. For each condition, the average length of the longest 200 neurites in each cell is measured simultaneously for 3 cultures.

[3] = Body weight of WKY rats under acute treatment; type: in vivo, rat; conditions: fluoxetine 10 mg/kg
[4] = target: T1, human progesterone receptor (PR) (Homo sapiens, UniProt P06401); experiment: Test of progesterone receptor agonist activity (MMTV-luciferase transactivation in transfected HEK293T cells); type: cell-based; conditions: 24 hours, increasing amounts, FIG. 1
T1 construct: expressed in transfected cells; host or cells: HEK293T
T1 sequence (P06401 1-933): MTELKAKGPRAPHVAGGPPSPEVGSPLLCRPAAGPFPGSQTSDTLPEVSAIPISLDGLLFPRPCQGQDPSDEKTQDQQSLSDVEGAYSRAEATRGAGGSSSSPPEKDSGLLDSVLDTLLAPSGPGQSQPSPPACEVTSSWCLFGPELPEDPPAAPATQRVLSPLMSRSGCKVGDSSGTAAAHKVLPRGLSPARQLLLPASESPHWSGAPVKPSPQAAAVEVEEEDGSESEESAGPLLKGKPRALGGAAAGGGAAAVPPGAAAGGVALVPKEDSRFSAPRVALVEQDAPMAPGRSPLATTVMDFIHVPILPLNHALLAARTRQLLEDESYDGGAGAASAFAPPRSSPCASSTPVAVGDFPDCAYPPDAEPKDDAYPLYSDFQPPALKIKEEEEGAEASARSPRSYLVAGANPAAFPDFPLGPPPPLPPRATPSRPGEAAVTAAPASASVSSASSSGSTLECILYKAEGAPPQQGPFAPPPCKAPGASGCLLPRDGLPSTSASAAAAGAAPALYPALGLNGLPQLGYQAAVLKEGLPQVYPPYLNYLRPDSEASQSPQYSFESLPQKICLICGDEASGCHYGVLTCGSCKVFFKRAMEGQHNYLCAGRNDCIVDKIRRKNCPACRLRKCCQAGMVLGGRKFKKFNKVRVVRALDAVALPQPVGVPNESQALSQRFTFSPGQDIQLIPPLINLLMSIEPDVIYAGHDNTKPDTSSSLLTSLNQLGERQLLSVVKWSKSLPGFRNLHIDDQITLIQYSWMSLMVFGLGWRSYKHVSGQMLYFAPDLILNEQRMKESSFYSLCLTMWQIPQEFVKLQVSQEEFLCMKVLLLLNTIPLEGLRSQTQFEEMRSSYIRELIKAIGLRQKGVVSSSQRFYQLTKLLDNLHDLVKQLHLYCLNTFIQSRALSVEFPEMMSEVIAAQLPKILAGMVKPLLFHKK
Protocol: The main experimental setting used is the following: HEK293T cells were transiently transfected, using calcium phosphate precipitation technology, with expression vectors pSG5hPR (which permits expression of human progesterone receptor (PR)), pFC31-luc (contains the luciferase gene under the control of the MMTV promoter, which is in turn activated by binding of a progestin to progesterone receptor) and pcbetagal (which permits expression of betagalactosidase), and cultured during 24 hours with increasing amounts of various compositions:
Test of Progesterone Receptor Agonist Activity: Transfected Cells were Cultured with Increasing Amounts of Progesterone or 3-Methoxy-Pregnenolone

| Compound | Activity [2] | Affinity (MAP2) | also measured |
| --- | --- | --- | --- |
| CNCCCN1c2ccccc2CCc2ccccc21 [desipramine] |  |  | immobility / depressive-like behavior in FST [1]: efficient to reverse depressive-like behavior |
| CNC1(c2ccccc2Cl)CCCCC1=O (stereo not drawn) [ketamine] |  |  | immobility / depressive-like behavior in FST [1]: elicited antidepressant-like effect; also recorded: decrease immobility; locomotor activity (total distance travelled in the open-field arena), change vs WKY receiving vehicle (Wistar Kyoto (WKY) rats; MAP4343 10 mg/kg s.c., 3 min, FIG. 5A): no significant change of locomotor activity; number of entries in the central square of OFA, change vs WKY receiving only vehicle (Wistar Kyoto (WKY) rats; MAP4343 10 mg/kg s.c.): failed to significantly modify the low entries in the center; time spent in the center of open-field vs WKY receiving vehicle (Wistar Kyoto (WKY) rats; MAP4343 10 mg/kg s.c.): did not induce any significant change of this measure; locomotor activity (total distance travelled in the open-field arena), change vs MAP4343-treated WKY (Wistar Kyoto (WKY) rats; FIG. 5A): no significant change of locomotor activity |
| Fc1ccc([C@@H]2CCNC[C@H]2COc2ccc3c(c2)OCO3)cc1 [paroxetine] |  |  | resistance of WKY rats to the drug (WKY rats): resistant |
| CC(=O)[C@H]1CC[C@H]2[C@@H]3CC=C4C[C@@H](O)CC[C@]4(C)[C@H]3CC[C@]12C [Pregnenolone (PREG), 3β-hydroxypregn-5α-en-20α-one, reference compound] | 100% of PREG | 100% of PREG | Neuritic sprouting (PC12 cells): ++ (equal to) |
| NNCCc1ccccc1 [phenelzine] |  |  | immobility / depressive-like behavior in FST [1]: subacute efficacy to reduce immobility |
| CNCCC(Oc1ccc(C(F)(F)F)cc1)c1ccccc1 (stereo not drawn) [fluoxetine] |  |  | body weight [3]: a reduced body weight; efficacy in OFA, EPM and FST (WKY rats; WKY rats, acute or chronic administration): no efficacy; resistance of WKY rats to the drug (WKY rats): resistant; number of entries in the central square of OFA, change vs WKY receiving only vehicle (Wistar Kyoto (WKY) rats; MAP4343 10 mg/kg s.c.): failed to significantly modify the low entries in the center; time spent in the center of open-field vs WKY receiving vehicle (Wistar Kyoto (WKY) rats; MAP4343 10 mg/kg s.c.): did not induce any significant change of this measure; locomotor activity (total distance travelled in the open-field arena), change vs MAP4343-treated WKY (Wistar Kyoto (WKY) rats; FIG. 5A): −52% |
| CC(=O)[C@@]12C[C@@H]1C[C@H]1[C@@H]3CC=C4C[C@@H](O)CC[C@]4(C)[C@H]3CC[C@@]12C [PREG-16α,17α-methylene] | 49% of PREG | 62% of PREG | Neuritic sprouting (PC12 cells): + (lower than) |
| CO[C@H]1CC[C@@]2(C)[C@@H](CC[C@@H]3[C@@H]2CC[C@]2(C)[C@@H](C(C)=O)CC[C@@H]32)C1 [3β-methoxy-5α-pregnane-20-one] | 10% of PREG | 87% of PREG |  |
| CC(=O)[C@H]1[C@H](C)C[C@H]2[C@@H]3CC[C@H]4C[C@@H](O)CC[C@]4(C)[C@H]3CC[C@@]21C [3β-hydroxy-5α-pregnane-20-one-16α-methyl] | 53% of PREG | 57% of PREG |  |
| PREG-16α,17α-epoxy | 54% of PREG | 41% of PREG | Neuritic sprouting (PC12 cells): + (lower than) |
| CC(=O)[C@H]1[C@H](C)C[C@H]2[C@@H]3CC=C4C[C@@H](O)CC[C@]4(C)[C@H]3CC[C@@]21C [PREG-16α-methyl] | 70% of PREG | 80% of PREG | Neuritic sprouting (PC12 cells): ++ (equal to) |
| CC(=O)[C@H]1[C@@H](C)C[C@H]2[C@@H]3CC=C4C[C@@H](O)CC[C@]4(C)[C@H]3CC[C@@]21C [PREG-16β-methyl] | 67% of PREG | 63% of PREG |  |
| CC(=O)[C@H]1CC[C@H]2[C@@H]3CCC4=CC(=O)CC[C@]4(C)[C@H]3CC[C@]12C [progesterone, reference compound] |  |  | progesterone receptor agonist activity (transactivation, expression of luciferase) [4]: permits a transactivation activity |
| CO[C@H]1CC[C@@]2(C)C(=CC[C@@H]3[C@@H]2CC[C@@]2(C)[C@H]3CC[C@@]2(C(C)=O)C(Cl)Cl)C1 [3β-methoxy-pregna-5-ene-20-one-17α-dichloromethyl] | 113% of PREG | 53% of PREG |  |
| CO[C@H]1CC[C@@]2(C)C(CCC3C2CC[C@@]2(C)C3CC[C@@H]2[C@@H](C)O)C1 (stereo partly drawn) [3β-methoxy-5α-pregnane-20β-ol] | 65% of PREG | 65% of PREG |  |
| CC(=O)OC(C)C1CCC2C3CC=C4CC(O)CCC4(C)C3CCC12C (stereo not drawn) [Pregna-5-ene-3β, 20β-dio1-20-acetate] | 108% of PREG | 60% of PREG | Neuritic sprouting (PC12 cells): ++ (equal to) |
| CO[C@H]1CC[C@@]2(C)C(=CC[C@H]3C4=CC[C@H](C(C)=O)[C@@]4(C)CC[C@@H]32)C1 [3β-methoxy-pregna-5,14-diene-20-one] | 50% of PREG | 102% of PREG |  |
